Measurements taken from paper PMC2106221 (The Journal of Cell Biology, 1963).
Read-outs that look alike come from different tables or passages of the source.

Key:
[1] = test system: trypsin-like amidase and esterase activity in human mast cells (mast cell enzyme(s)); format: biochemical; settings: for time required for the appearance of visible mast cells, mean: double-blind; for time to observable mast cells at theoretical Vm: from the Lineweaver-Burk plot; for time for the demonstration of mast cells: optimal substrate concentration
[2] = molecular target: T1, bovine trypsin (crystalline) (Bos taurus, UniProt P00760); format: biochemical; settings: for Percentage inhibition 5 min.: DL-BANA 0.60 mM, enzyme 10 μg/ml
T1 sequence (P00760 24-246): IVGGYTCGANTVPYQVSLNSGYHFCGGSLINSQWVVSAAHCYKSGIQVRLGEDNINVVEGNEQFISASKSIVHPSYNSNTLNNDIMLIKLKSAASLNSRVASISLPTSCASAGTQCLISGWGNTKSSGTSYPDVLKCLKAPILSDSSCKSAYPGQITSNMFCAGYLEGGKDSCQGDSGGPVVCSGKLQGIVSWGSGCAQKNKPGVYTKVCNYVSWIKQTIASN

canine mast cells = assay: histochemical reaction in canine skin sections; format: biochemical, dog; settings: incubation period of 1 hour
chymotrypsin = settings: pH 7.2 ref 2; cited from earlier work
[3] = spontaneous hydrolysis of ester substrate in water/buffer; format: physicochemical
[4] = molecular target: T1, bovine trypsin (crystalline); settings: trypsin 4 X pancreatin (Nutritional Biochemical Corporation) ref 1; cited from earlier work
[5] = diazonium coupling velocity in test tube, spectrophotometric half-reaction times; format: physicochemical
[6] = Lineweaver-Burk plot, human mast cells

## Cl.N=C(N)NCCCC(NC(=O)c1ccccc1)C(=O)Nc1ccc2ccccc2c1 (racemic) [DL-BANA, benzoyl-DL-arginine β-naphthylamide hydrochloride]
[1]; Experiment 1, DL-BANA 0.12 mM
  time required for the appearance of visible mast cells, mean: 7.0 min
[1]; Experiment 2, DL-BANA 0.050 mM
  time required for the appearance of visible mast cells, mean: 15.9 min
[1]
  time to observable mast cells at theoretical Vm: 2 min
[1]; human mast cells
  time for the demonstration of mast cells: 5 to 6 min
[2]; in the absence of Garnet GBC
  Vm: 50 mμM β-naphthylamine liberated
[2]; in the presence of Garnet GBC
  Vm: 30 mμM β-naphthylamine liberated

## Cl.NCCCCC(NC(=O)c1ccccc1)C(=O)Nc1ccc2ccccc2c1 (racemic) [DL-BLyNA, benzoyl-DL-lysine β-naphthylamide hydrochloride]
[1]
  time to observable mast cells at theoretical Vm: 2 min
[1]; human mast cells
  time for the demonstration of mast cells: 5 to 6 min
Canine mast cells
  reaction in canine mast cells: No reaction

## NC(=O)[C@H](CCCN=C(N)N)NC(=O)c1ccccc1 [BAA, benzoyl-L-arginine amide, reference compound]
[1]; [6]
  nature of inhibition of DL-BANA hydrolysis: competitive
[1]; human mast cells
  nature of inhibition of DL-BLyNA hydrolysis: competitive

## COC(=O)[C@H](CCCNC(=N)N)NC(=O)c1ccccc1 [BAME, benzoyl-L-arginine methyl ester, reference compound]
[1]; [6]
  nature of inhibition of DL-BANA hydrolysis: competitive
  nature of inhibition of EACA-AS hydrolysis: competitive inhibitor

## Cl.N=C(N)NCCC[C@@H](NC(=O)c1ccccc1)C(=O)Nc1ccc2ccccc2c1 [D-BANA, benzoyl-D-arginine β-naphthylamide hydrochloride]
[1]; [6]
  nature of inhibition of DL-BANA hydrolysis: competitive inhibitor
[1]; tested as substrate
  hydrolysis in the mast cells: not hydrolyzed
[2]
  nature of inhibition of tryptic hydrolysis of L-BANA: competitive inhibitor
  substrate for trypsin: not a substrate for trypsin

## NCCCCCC(=O)Oc1cc2ccccc2cc1C(=O)Nc1ccccc1 [EACA-AS, Naphthol AS ε-aminocaproate]
chymotrypsin
  hydrolysis by chymotrypsin relative to that of trypsin: about 10 per cent
[3]; pH 5-6
  spontaneous hydrolysis in water: insignificant
[3]; pH 7.2, during 20 minutes
  mean substrate concentration during spontaneous hydrolysis: 92 per cent of the original concentration
[3]; pH 7.2, during 30 minutes
  mean substrate concentration during spontaneous hydrolysis: 90 per cent of the original concentration
[3]; pH 7.2, during the first 10 minutes
  mean substrate concentration during spontaneous hydrolysis: 95 per cent of the original concentration
[1]; human mast cells, Fig. 7
  substrate concentration at approximately half-maximal velocity: ~7 #M
[2]; trypsin, velocity calculated from the Lineweaver-Burk plot
  substrate concentration at approximately 50 per cent of the reaction velocity: ~20 /ZM

## Cc1ccccc1NC(=O)c1cc2ccccc2cc1OC(=O)CCCCCN [EACA-AS-D, Naphthol AS-D ε-aminocaproate]
[1]; both biochemical and histochemical studies
  results as substrate compared with EACA-AS: essentially the same results as EACA-AS

## Cc1ccccc1N=Nc1ccc([N+]#N)c(C)c1 [Garnet GBC]
[2]; Garnet GBC 0.05 mg/ml
  Percentage inhibition 5 min.: 4.7%
[2]; Garnet GBC 0.10 mg/ml
  Percentage inhibition 5 min.: 13.2%
[2]; Garnet GBC 0.20 mg/ml
  Percentage inhibition 5 min.: 16.5%
[2]; Garnet GBC 0.40 mg/ml
  Percentage inhibition 5 min.: 20.1%
[2]; Garnet GBC 2.00 mg/ml
  Percentage inhibition 5 min.: 35.0%
[2]; Lineweaver-Burk plot
  nature of inhibition of tryptic DL-BANA hydrolysis: uncompetitive inhibition
[2]; from Lineweaver-Burk plot, Fig. 6
  inhibition of Vm of DL-BANA hydrolysis by the diazonium salt: about 40 per cent
[2]; preincubation of 60 minutes prior to the addition of substrate
  change of hydrolysis rate after preincubation with diazonium salt: no more than 15 per cent
[4]
  inhibition of DL-BANA hydrolysis: Up to 75 per cent

## Nc1ccc2ccccc2c1 [β-naphthylamine]
[5]; Garnet GBC 0.70 mg/ml, presence of Tween 20
  Half-reaction time of coupling with Garnet GBC: 7 s
[5]; Garnet GBC 0.70 mg/ml, presence of albumin
  Half-reaction time of coupling with Garnet GBC: 48 s
[5]; Garnet GBC 0.70 mg/ml, water, pH 7.2
  Half-reaction time of coupling with Garnet GBC: 93 s
[5]; Garnet GBC 1.40 mg/ml, presence of Tween 20
  Half-reaction time of coupling with Garnet GBC: 4 s
[5]; Garnet GBC 1.40 mg/ml, presence of albumin
  Half-reaction time of coupling with Garnet GBC: 23 s
[5]; Garnet GBC 1.40 mg/ml, water, pH 7.2
  Half-reaction time of coupling with Garnet GBC: 42 s
